Series [1] in a line: Lipophilicity by RP-TLC (methanol/water, HPTLC 60RP-18 plates). It counts as physicochemical. To be noted: for −S (slope of the regression curve), RP–TLC / RM0: methanol/water, RP-TLC; for RM0: extrapolated to zero methanol concentration, 22 °C; for Φ0 (chromatographic lipophilicity parameter), RP–TLC: Φ0 = −RM0/S. How it is done:
Specifically, 10 × 10 cm plates with silica gel HPTLC 60RP-18 WF254s (Merck, Darmstadt, Niemcy) were used as the stationary phase. Methanol and water for HPLC from POCH (Gliwice, Poland) were used as solvents. Methanol concentration expressed as volume fraction v/v, varied in the range from 0.5 to 0.7 in constant steps of 0.05. Test compounds were dissolved in methanol (2 mg/mL), and then samples (0.01 mL) of each were applied to plates, which were developed in a horizontal DS chamber (Chromdes, Lublin, Poland).
The developing distance was 8 cm. Developed plates were air-dried and observed under 254 nm ultraviolet lamp. All analyzes were performed at 22 °C. Experiments were performed in triplicate with similar results.
For all the compounds, the relative lipophilicity RM values for five methanol–water mobile phases were calculated by the use of the following formula:(4) RM=log[1−RF/RF].
The linear relationship between the RM values and the concentration of methanol in the mobile phase to determine the lipophilicity parameters RM0 is described by the following equation:(5) RM=RM0+SΦ, where Φ —methanol concentration in the mobile phase (volume fraction v/v), and S—the slope of the regression curve.
The quantity Φ0 was calculated from the following equation:(6) Φ0=−RM0/S.

Series [2] in a line: Lipophilicity by RP-HPLC (methanol/water, RP-18 column). It counts as physicochemical. As to conditions: for −S (slope of the regression curve), RP–HPLC / log kw: methanol/water, RP-HPLC; for log kw: extrapolated to zero methanol concentration, 25 °C; for Φ0 (chromatographic lipophilicity parameter), RP–HPLC: Φ0 = −log kw/S. How it is done: The HPLC experiments were performed on the Shimadzu HPLC system (Kyoto, Japan) equipped with solvent delivery pump LC-20AD, UV–VIS detector model SPD-20A, degasser model DGU-20A5, a column oven model CTO-20A, and a column Superspher® 100 RP-18 (4 μm), Merck (Darmstadt, Germany). Methanol and water for HPLC from POCH (Gliwice, Poland) were used as solvents. Mobile phase methanol/water varied in the various ratios. Methanol concentration expressed as volume fraction v/v, varied in the range from 0.55 to 0.95 in constant steps of 0.05. Compounds 1–28 were dissolved in methanol (1 mg/mL). The mobile phase flow rate was 0.7 mL/min. The injection volume was 0.02 mL. All analyzes were performed at 25 °C. Experiments were performed in triplicate with similar results.
The retention coefficient k was calculated from the following relationship:(1) k=tr/tm−1, where tr [min]—retention time, and tm [min]—time for dead volume (measured by use of uracil).
To determine the linear relationship between the values of the log k parameter and the concentration of methanol in the mobile phase, the Soczewiński–Wachtmeister equation was used:(2) logk= log kw+SΦ, where log kw —value extrapolated to zero methanol concentration, Φ —methanol concentration in the mobile phase (volume fraction v/v), and S—the slope of the regression curve.
The parameter Φ0 was calculated from the equation:(3) Φ0=−log kw/S.

SMILES strings stand for the structures.

With `CC(C)NC1=NC(=O)C(C)S1` (stereo not drawn) [Compound 1, 5-methyl-2-isopropylaminothiazol-4(5H)-one], in series [1], the “−S (slope of the regression curve), RP–TLC” value came out at 1.280; the RM0 was 0.94; the “Φ0 (chromatographic lipophilicity parameter), RP–TLC” value came to 0.734. Moreover, in series [2], the “−S (slope of the regression curve), RP–HPLC” value turned out to be 2.975; the log kw is reported as 1.35; the “Φ0 (chromatographic lipophilicity parameter), RP–HPLC” value was found to be 0.454.

For the molecule `CCC1SC(NC(C)C)=NC1=O` (stereo not drawn) [Compound 2], in series [1], the “−S (slope of the regression curve), RP–TLC” value is reported as 2.075; the RM0 is listed as 1.39; the “Φ0 (chromatographic lipophilicity parameter), RP–TLC” value came out at 0.668. For the same molecule, in series [2], the “−S (slope of the regression curve), RP–HPLC” value amounted to 3.254; the log kw is 1.86; the “Φ0 (chromatographic lipophilicity parameter), RP–HPLC” value is on record as 0.571.

On to `CCCC1SC(NC(C)C)=NC1=O` (stereo not drawn) [Compound 3], for which, in series [1], the “−S (slope of the regression curve), RP–TLC” value amounted to 2.422; the RM0 is listed as 1.63; the “Φ0 (chromatographic lipophilicity parameter), RP–TLC” value is on record as 0.673. In series [2], the “−S (slope of the regression curve), RP–HPLC” value turned out to be 3.494; the log kw is 2.28; the “Φ0 (chromatographic lipophilicity parameter), RP–HPLC” value was found to be 0.652.

Turning to `CC(C)NC1=NC(=O)C(C(C)C)S1` (stereo not drawn) [Compound 4], in series [1], the “−S (slope of the regression curve), RP–TLC” value is 2.127; the RM0 is 1.41; the “Φ0 (chromatographic lipophilicity parameter), RP–TLC” value worked out at 0.663. Moreover, in series [2], the “−S (slope of the regression curve), RP–HPLC” value is reported as 3.603; the log kw is recorded as 2.28; the “Φ0 (chromatographic lipophilicity parameter), RP–HPLC” value turned out to be 0.633.

Take `CC(C)NC1=NC(=O)C(C)(C)S1` [Compound 5]: in series [1], the “−S (slope of the regression curve), RP–TLC” value came to 1.903; the RM0 is 1.20; the “Φ0 (chromatographic lipophilicity parameter), RP–TLC” value came out at 0.629. Further, in series [2], the “−S (slope of the regression curve), RP–HPLC” value was 3.400; the log kw is on record as 1.94; the “Φ0 (chromatographic lipophilicity parameter), RP–HPLC” value was 0.571.

With `CC(C)NC1=NC(=O)C(c2ccccc2)S1` (stereo not drawn) [Compound 6], in series [1], the “−S (slope of the regression curve), RP–TLC” value came out at 2.049; the RM0 is 1.58; the “Φ0 (chromatographic lipophilicity parameter), RP–TLC” value came out at 0.771. Further, in series [2], the “−S (slope of the regression curve), RP–HPLC” value is 4.3069; the log kw was 2.84; the “Φ0 (chromatographic lipophilicity parameter), RP–HPLC” value worked out at 0.659.

With `CC(C)NC1=NC(=O)C(c2ccc(Br)cc2)S1` (stereo not drawn) [Compound 7], in series [1], the “−S (slope of the regression curve), RP–TLC” value was found to be 3.870; the RM0 is 2.85; the “Φ0 (chromatographic lipophilicity parameter), RP–TLC” value is recorded as 0.736. Besides, in series [2], the “−S (slope of the regression curve), RP–HPLC” value is 4.422; the log kw was 3.22; the “Φ0 (chromatographic lipophilicity parameter), RP–HPLC” value was found to be 0.728.

In the case of `CC(C)NC1=NC(=O)C2(CCCCC2)S1` [Compound 8], in series [1], the “−S (slope of the regression curve), RP–TLC” value was found to be 2.877; the RM0 is given as 2.04; the “Φ0 (chromatographic lipophilicity parameter), RP–TLC” value came to 0.709. For the same molecule, in series [2], the “−S (slope of the regression curve), RP–HPLC” value worked out at 4.170; the log kw is listed as 2.97; the “Φ0 (chromatographic lipophilicity parameter), RP–HPLC” value was 0.712.

As to `CC(C)NC1=NC(=O)C2(CCC2)S1` [Compound 9], in series [1], the “−S (slope of the regression curve), RP–TLC” value was found to be 1.990; the RM0 is 1.37; the “Φ0 (chromatographic lipophilicity parameter), RP–TLC” value worked out at 0.691. In addition, in series [2], the “−S (slope of the regression curve), RP–HPLC” value is 2.890; the log kw was 1.79; the “Φ0 (chromatographic lipophilicity parameter), RP–HPLC” value was determined as 0.619.

In the case of `CC1SC(NC(C)(C)C)=NC1=O` (stereo not drawn) [Compound 10], in series [1], the “−S (slope of the regression curve), RP–TLC” value was 2.393; the RM0 was 1.57; the “Φ0 (chromatographic lipophilicity parameter), RP–TLC” value is on record as 0.658. In series [2], the “−S (slope of the regression curve), RP–HPLC” value was found to be 3.122; the log kw is listed as 1.74; the “Φ0 (chromatographic lipophilicity parameter), RP–HPLC” value was determined as 0.557.

For `CCC1SC(NC(C)(C)C)=NC1=O` (stereo not drawn) [Compound 11], in series [1], the “−S (slope of the regression curve), RP–TLC” value stood at 2.478; the RM0 is 1.59; the “Φ0 (chromatographic lipophilicity parameter), RP–TLC” value was determined as 0.643. For the same molecule, in series [2], the “−S (slope of the regression curve), RP–HPLC” value worked out at 3.073; the log kw is given as 1.88; the “Φ0 (chromatographic lipophilicity parameter), RP–HPLC” value came out at 0.612.

For `CCCC1SC(NC(C)(C)C)=NC1=O` (stereo not drawn) [Compound 12], in series [1], the “−S (slope of the regression curve), RP–TLC” value is listed as 2.426; the RM0 was 1.71; the “Φ0 (chromatographic lipophilicity parameter), RP–TLC” value was 0.703. Besides, in series [2], the “−S (slope of the regression curve), RP–HPLC” value stood at 3.606; the log kw is recorded as 2.46; the “Φ0 (chromatographic lipophilicity parameter), RP–HPLC” value came out at 0.682.

For `CC(C)C1SC(NC(C)(C)C)=NC1=O` (stereo not drawn) [Compound 13], in series [1], the “−S (slope of the regression curve), RP–TLC” value is 2.095; the RM0 was 1.46; the “Φ0 (chromatographic lipophilicity parameter), RP–TLC” value amounted to 0.699. Further, in series [2], the “−S (slope of the regression curve), RP–HPLC” value is 3.585; the log kw was 2.39; the “Φ0 (chromatographic lipophilicity parameter), RP–HPLC” value turned out to be 0.667.

Turning to `CC(C)(C)NC1=NC(=O)C(C)(C)S1` [Compound 14], in series [1], the “−S (slope of the regression curve), RP–TLC” value came to 1.826; the RM0 was 1.19; the “Φ0 (chromatographic lipophilicity parameter), RP–TLC” value was determined as 0.652. Moreover, in series [2], the “−S (slope of the regression curve), RP–HPLC” value came out at 3.320; the log kw is recorded as 2.02; the “Φ0 (chromatographic lipophilicity parameter), RP–HPLC” value is on record as 0.608.

On to `CC(C)(C)NC1=NC(=O)C(c2ccccc2)S1` (stereo not drawn) [Compound 15], for which, in series [1], the “−S (slope of the regression curve), RP–TLC” value was 4.293; the RM0 is reported as 3.17; the “Φ0 (chromatographic lipophilicity parameter), RP–TLC” value is 0.739. In series [2], the “−S (slope of the regression curve), RP–HPLC” value was found to be 4.449; the log kw is 3.25; the “Φ0 (chromatographic lipophilicity parameter), RP–HPLC” value amounted to 0.730.

As for `CC(C)(C)NC1=NC(=O)C(c2ccc(Br)cc2)S1` (stereo not drawn) [Compound 16], in series [1], the “−S (slope of the regression curve), RP–TLC” value was determined as 4.131; the RM0 is recorded as 3.20; the “Φ0 (chromatographic lipophilicity parameter), RP–TLC” value amounted to 0.774. In series [2], the “−S (slope of the regression curve), RP–HPLC” value stood at 4.537; the log kw is listed as 3.38; the “Φ0 (chromatographic lipophilicity parameter), RP–HPLC” value came to 0.745.

Regarding `CC(C)(C)NC1=NC(=O)C2(CCCCC2)S1` [Compound 17, 2-(tert-butylamino)-1-thia-3-azaspiro[4.5]dec-2-en-4-one], in series [1], the “−S (slope of the regression curve), RP–TLC” value was 2.477; the RM0 was 1.89; the “Φ0 (chromatographic lipophilicity parameter), RP–TLC” value came to 0.762. In series [2], the “−S (slope of the regression curve), RP–HPLC” value is on record as 3.904; the log kw is 2.86; the “Φ0 (chromatographic lipophilicity parameter), RP–HPLC” value is 0.732.

In the case of `CC(C)(C)NC1=NC(=O)C2(CCC2)S1` [Compound 18], in series [1], the “−S (slope of the regression curve), RP–TLC” value was 2.476; the RM0 is on record as 1.69; the “Φ0 (chromatographic lipophilicity parameter), RP–TLC” value was 0.683. In series [2], the “−S (slope of the regression curve), RP–HPLC” value was 3.297; the log kw is 2.15; the “Φ0 (chromatographic lipophilicity parameter), RP–HPLC” value came to 0.652.

For the molecule `CC1SC(NC23CC4CC(CC(C4)C2)C3)=NC1=O` (stereo not drawn) [Compound 19], in series [1], the “−S (slope of the regression curve), RP–TLC” value amounted to 3.148; the RM0 was 2.55; the “Φ0 (chromatographic lipophilicity parameter), RP–TLC” value amounted to 0.810. Also, in series [2], the “−S (slope of the regression curve), RP–HPLC” value is given as 4.099; the log kw is reported as 3.22; the “Φ0 (chromatographic lipophilicity parameter), RP–HPLC” value is given as 0.786.

As for `CCC1SC(NC23CC4CC(CC(C4)C2)C3)=NC1=O` (stereo not drawn) [Compound 20], in series [1], the “−S (slope of the regression curve), RP–TLC” value was found to be 2.678; the RM0 is given as 2.30; the “Φ0 (chromatographic lipophilicity parameter), RP–TLC” value is on record as 0.860. In series [2], the “−S (slope of the regression curve), RP–HPLC” value was found to be 4.437; the log kw is 3.6; the “Φ0 (chromatographic lipophilicity parameter), RP–HPLC” value is listed as 0.811.

`CCCC1SC(NC23CC4CC(CC(C4)C2)C3)=NC1=O` (stereo not drawn) [Compound 21]: in series [1], the “−S (slope of the regression curve), RP–TLC” value is 2.564; the RM0 was 2.33; the “Φ0 (chromatographic lipophilicity parameter), RP–TLC” value was 0.909. Besides, in series [2], the “−S (slope of the regression curve), RP–HPLC” value was 4.859; the log kw is 4.08; the “Φ0 (chromatographic lipophilicity parameter), RP–HPLC” value came to 0.840.

(Values after PMC10418735, “Lipophilic Studies and In Silico ADME Profiling of Biologically Active 2-Aminothiazol-4(5H)-one Derivatives” (International Journal of Molecular Sciences, 2023).)
